# Test results as given in patent US20260083851A1 (AVILAR THERAPEUTICS, INC., priority 2022, published 2026).
# Target: T1, ASGP receptor (biotinylated ASGPR) (Homo sapiens, UniProt P07306)
# T1 construct: biotin (biotinylated)
# T1 sequence (P07306 1-291): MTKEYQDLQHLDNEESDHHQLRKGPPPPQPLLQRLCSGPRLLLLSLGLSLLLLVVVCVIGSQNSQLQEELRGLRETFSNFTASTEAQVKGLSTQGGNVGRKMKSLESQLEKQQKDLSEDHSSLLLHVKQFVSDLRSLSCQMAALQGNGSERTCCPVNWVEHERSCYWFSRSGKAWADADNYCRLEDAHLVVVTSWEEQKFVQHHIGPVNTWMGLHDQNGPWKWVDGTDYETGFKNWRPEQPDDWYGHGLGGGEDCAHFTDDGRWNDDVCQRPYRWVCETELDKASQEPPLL
# Format: binding
# Details: SPR, Biacore 8K, 25° C.; Table 1A; read-out: ASGPR KD
row,Kd [µM],Structure (SMILES)
1,< 10,"O=C(O)CN1CCC(N2CCC(C(=O)NC[C@H]3OC[C@H](Nc4cncc(C(F)(F)F)n4)[C@@H](O)[C@H]3O)CC2)CC1 [A62, 2-(4-((((2R,3R,4R,5S)-3,4-dihydroxy-5-((6-(trifluoromethyl)pyrazin-2-yl)amino)tetrahydro-2H-pyran-2-yl)methyl)carbamoyl)-[1,4′-bipiperidin]-1′-yl)acetic acid]"
2,< 10,"NC1CC2(C1)CC(NC(=O)C[C@H]1OC[C@H](Nc3cncc(C(F)(F)F)n3)[C@@H](O)[C@H]1O)C2 (stereo partly drawn) [A92, N-(6-aminospiro[3.3]heptan-2-yl)-2-((2R,3R,4R,5S)-3,4-dihydroxy-5-((6-(trifluoromethyl)pyrazin-2-yl)amino)tetrahydro-2H-pyran-2-yl)acetamide]"
3,10 to 100,OC[C@H]1O[C@H](Cc2ccccc2)[C@@H](Nc2nccc(C(F)(F)F)n2)[C@@H](O)[C@H]1O [A104]
4,10 to 100,"OC[C@H]1O[C@@H](c2ccccc2)[C@H](Nc2cncc(C(F)(F)F)n2)[C@@H](O)[C@H]1O [A109, (2R,3R,4R,5R,6S)-2-(hydroxymethyl)-6-phenyl-5-((6-(trifluoromethyl)pyrazin-2-yl)amino)tetrahydro-2H-pyran-3,4-diol]"
5,< 10,"O=C(NC[C@H]1OC[C@H](Nc2cncc(C(F)(F)F)n2)[C@@H](O)[C@H]1O)c1cccnc1 [A63, N-(((2R,3R,4R,5S)-3,4-dihydroxy-5-((6-(trifluoromethyl)pyrazin-2-yl)amino)tetrahydro-2H-pyran-2-yl)methyl)nicotinamide]"
6,< 10,"O=C(NC[C@H]1OC[C@H](Nc2cncc(C(F)(F)F)n2)[C@@H](O)[C@H]1O)c1ccc2c(n1)CCNC2 [A77, N-(((2R,3R,4R,5S)-3,4-dihydroxy-5-((6-(trifluoromethyl)pyrazin-2-yl)amino)tetrahydro-2H-pyran-2-yl)methyl)-5,6,7,8-tetrahydro-1,6-naphthyridine-2-carboxamide]"
7,< 10,"O=C(NC[C@H]1OC[C@H](Nc2cncc(C(F)(F)F)n2)[C@@H](O)[C@H]1O)c1ccc2occc2c1 [A11, N-(((2R,3R,4R,5S)-3,4-dihydroxy-5-((6-(trifluoromethyl)pyrazin-2-yl)amino)tetrahydro-2H-pyran-2-yl)methyl)benzofuran-5-carboxamide]"
8,< 10,"O=C(O)c1ccc(N2CCC(CN3CCN(C[C@H]4OC[C@H](Nc5nc(C(F)(F)F)ccc5F)[C@@H](O)[C@H]4O)CC3)CC2)cc1 [A101, 4-(4-((4-(((2R,3R,4R,5S)-5-((3-fluoro-6-(trifluoromethyl)pyridin-2-yl)amino)-3,4-dihydroxytetrahydro-2H-pyran-2-yl)methyl)piperazin-1-yl)methyl)piperidin-1-yl)benzoic acid]"
9,< 10,"O=C(NC[C@H]1OC[C@H](Nc2cncc(C(F)(F)F)n2)[C@@H](O)[C@H]1O)c1cnc2cc[nH]c2n1 [A82, N-(((2R,3R,4R,5S)-3,4-dihydroxy-5-((6-(trifluoromethyl)pyrazin-2-yl)amino)tetrahydro-2H-pyran-2-yl)methyl)-5H-pyrrolo[2,3-b]pyrazine-3-carboxamide]"
10,< 10,"OC[C@H]1O[C@@H](c2ccccc2)[C@H](Nc2nccc(C(F)(F)F)n2)[C@@H](O)[C@H]1O [A94, (2R,3R,4R,5R,6S)-2-(hydroxymethyl)-6-phenyl-5-((4-(trifluoromethyl)pyrimidin-2-yl)amino)tetrahydro-2H-pyran-3,4-diol]"
11,< 10,"O=S(=O)(NC[C@H]1OC[C@H](Nc2cncc(C(F)(F)F)n2)[C@@H](O)[C@H]1O)c1ccccc1 [A112, N-(((2R,3R,4R,5S)-3,4-dihydroxy-5-((6-(trifluoromethyl)pyrazin-2-yl)amino)tetrahydro-2H-pyran-2-yl)methyl)benzenesulfonamide]"

# Same assay, conditions: SPR, Biacore 8K, 25° C.; Table 1B; read-out: ASGPR Kd
row,Kd [µM],Structure (SMILES)
1,< 10,"O=C(c1ccc(Cc2ccccc2)cc1)N1C[C@H](Nc2cncc(C(F)(F)F)n2)[C@@H](O)[C@@H](O)C1 [A148, (4-benzylphenyl)((3S,4R,5S)-3,4-dihydroxy-5-((6-(trifluoromethyl)pyrazin-2-yl)amino)piperidin-1-yl)methanone]"
2,< 10,"O=C1c2ccccc2CN1C[C@H]1OC[C@H](Nc2cncc(C(F)(F)F)n2)[C@@H](O)[C@H]1O [A152, 2-(((2R,3R,4R,5S)-3,4-dihydroxy-5-((6-(trifluoromethyl)pyrazin-2-yl)amino)tetrahydro-2H-pyran-2-yl)methyl) isoindolin-1-one]"
3,< 10,"OC[C@H]1OC[C@H](Sc2cccc(C(F)(F)F)n2)[C@@H](O)[C@H]1O [A161, (2R,3R,4S,5S)-2-(hydroxymethyl)-5-((6-(trifluoromethyl)pyridin-2-yl)thio)tetrahydro-2H-pyran-3,4-diol]"
4,< 10,"OC[C@H]1OC[C@H](Oc2cncc(C(F)(F)F)n2)[C@@H](O)[C@H]1O [A141, (2R,3R,4S,5S)-2-(hydroxymethyl)-5-((6-(trifluoromethyl)pyrazin-2-yl)oxy)tetrahydro-2H-pyran-3,4-diol]"

# Same assay, conditions: SPR, Biacore 8K, 25° C.; Table 1C, numeric bound; read-out: ASGPR KD
row,Kd [µM],Structure (SMILES)
1,> 30,"OC[C@H]1OC[C@H](Nc2ncc3cn[nH]c3n2)[C@@H](O)[C@H]1O [A183, (2R,3R,4R,5S)-5-((1H-pyrazolo[3,4-d]pyrimidin-6-yl)amino)-2-(hydroxymethyl)tetrahydro-2H-pyran-3,4-diol]"

# Same assay, conditions: SPR, Biacore 8K, 25° C.; Table 1C; read-out: ASGPR KD
row,Kd [µM],Structure (SMILES)
1,< 10,C[C@H]1O[C@H](C#CCOc2cccnn2)[C@H](Oc2cccc(C(F)(F)F)n2)[C@@H](O)[C@H]1O [A319]
2,< 10,CC(C)(C)OC(=O)N1CCC(Cc2ccc(OC[C@H]3OC[C@H](Oc4cccc(C(F)(F)F)n4)[C@@H](O)[C@H]3O)nn2)CC1 [A280]
3,< 10,"NC[C@H]1OC[C@H](Oc2cccc(C(F)(F)F)n2)[C@@H](O)[C@H]1O [A192, (2R,3R,4S,5S)-2-(aminomethyl)-5-((6-(trifluoromethyl)pyridin-2-yl)oxy)tetrahydro-2H-pyran-3,4-diol]"
4,< 10,"O[C@@H]1[C@H](O)[C@@H](Oc2cccc(C(F)(F)F)n2)CO[C@@H]1COc1ncccn1 [A235, (2R,3R,4S,5S)-2-((pyrimidin-2-yloxy)methyl)-5-((6-(trifluoromethyl)pyridin-2-yl)oxy)tetrahydro-2H-pyran-3,4-diol]"
5,< 10,O=C(O)c1ccc(N2CCN(C[C@H]3OC[C@H](Oc4cccc(C(F)(F)F)n4)[C@@H](O)[C@H]3O)CC2)nn1 [A276]
6,< 10,O[C@@H]1[C@H](O)[C@@H](Nc2cccc(C(F)(F)F)n2)CO[C@@H]1COc1ccccc1 [A243]
7,< 10,"O=C(O)c1ccc(-c2ccc(OC[C@H]3OC[C@H](Nc4cncc(C(F)(F)F)n4)[C@@H](O)[C@H]3O)cc2)cc1 [A215, 4′-(((2R,3R,4R,5S)-3,4-dihydroxy-5-((6-(trifluoromethyl)pyrazin-2-yl)amino)tetrahydro-2H-pyran-2-yl)methoxy)-[1,1′-biphenyl]-4-carboxylic acid]"
8,< 10,"O=C(O)c1ccc(-c2ccc(OC[C@H]3OC[C@H](Nc4cccc(C(F)(F)F)n4)[C@@H](O)[C@H]3O)cc2)cc1 [A225, 4′-(((2R,3R,4R,5S)-3,4-dihydroxy-5-((6-(trifluoromethyl)pyridin-2-yl)amino)tetrahydro-2H-pyran-2-yl)methoxy)-[1,1′-biphenyl]-4-carboxylic acid]"
9,< 10,"O[C@@H]1[C@H](O)[C@@H](Oc2cccc(C(F)(F)F)n2)CO[C@@H]1COc1cnccn1 [A229, (2R,3R,4S,5S)-2-((pyrazin-2-yloxy)methyl)-5-((6-(trifluoromethyl)pyridin-2-yl)oxy)tetrahydro-2H-pyran-3,4-diol]"
10,< 10,O=C(O)c1cnc(OC[C@H]2OC[C@H](Nc3cccc(C(F)(F)F)n3)[C@@H](O)[C@H]2O)cn1 [A309]
11,< 10,CC(=O)[C@H]1O[C@H](C)[C@H](O)[C@H](O)[C@H]1Oc1cccc(C(F)(F)F)n1 [A334]
12,< 10,O[C@@H]1[C@@H](Oc2cccc(C(F)(F)F)n2)CSC[C@@H]1O [A345]

# Same assay, conditions: SPR, Biacore 8K, 25° C.; Table 1D, numeric bound; read-out: ASGPR KD
row,Kd [µM],Structure (SMILES)
1,> 30,O=C(OCc1ccccc1)N1CC(Nc2cn[nH]c2)[C@@H](O)[C@@H](O)C1 (stereo partly drawn) [A371]

# Same assay, conditions: SPR, Biacore 8K, 25° C.; Table 1D; read-out: ASGPR KD
row,Kd [µM],Structure (SMILES)
1,< 10,O=C(OCc1ccccc1)N1C[C@H](Oc2cncc(C(F)(F)F)n2)[C@@H](O)[C@@H](O)C1 [A385]
2,< 10,O[C@@H]1[C@@H](Oc2cncc(C(F)(F)F)n2)CNC[C@@H]1O [A389]
3,< 10,O[C@@H]1[C@H](O)[C@@H](Oc2cncc(C(F)(F)F)n2)CO[C@@H]1COc1ncccn1 [A417]
4,< 10,O=C(c1ccc(C(F)(F)F)cn1)N1C[C@H](Nc2cncc(C(F)(F)F)n2)[C@@H](O)[C@@H](O)C1 [A378]
5,< 10,C[C@H]1O[C@H](c2cc(-c3ccccc3)no2)[C@H](Oc2cccc(C(F)(F)F)n2)[C@@H](O)[C@H]1O [A346]
6,< 10,O=C(OCc1ccccc1)N1CCC(N2C[C@H](Nc3cccc(C(F)(F)F)n3)[C@@H](O)[C@@H](O)C2)C(F)(F)C1 (stereo partly drawn) [A412]
7,< 10,O=C(OCc1ccccc1)N1C[C@H](Nc2nccc(C(F)(F)F)n2)[C@@H](O)[C@@H](O)C1 [A369]
8,< 10,O[C@@H]1[C@@H](Oc2cccc(C(F)(F)F)n2)CN(c2noc(-c3ccccc3)n2)C[C@@H]1O [A353]

# Same assay, conditions: SPR, Biacore 8K, 25° C.; Table 1E, numeric bound; read-out: ASGPR KD
row,Kd [µM],Structure (SMILES)
1,> 30,C[C@H]1O[C@H](C(=O)NCCOCCOCC(=O)O)[C@H](Oc2cccc(C(F)(F)F)n2)[C@@H](O)[C@H]1O [A440]

# Same assay, conditions: SPR, Biacore 8K, 25° C.; Table 1E; read-out: ASGPR KD
row,Kd [µM],Structure (SMILES)
1,< 10,C[C@H]1O[C@H](COc2cnccn2)[C@H](Oc2cncc(C(F)(F)F)n2)[C@@H](O)[C@H]1O [A434]
